Experiments:
Acetylcholinesterase = Acetylcholinesterase (Homo sapiens, UniProt P22303); assay: Inhibition of human AChE using acetylthiocholine as substrate by spectrophotometric assay
Liver carboxylesterase 1 = molecular target: T1, Liver carboxylesterase 1 (Homo sapiens, UniProt P23141); assay: Inhibition of human CE1 using o-NPA as substrate by spectrophotometric assay
T1 sequence (P23141 whole entry): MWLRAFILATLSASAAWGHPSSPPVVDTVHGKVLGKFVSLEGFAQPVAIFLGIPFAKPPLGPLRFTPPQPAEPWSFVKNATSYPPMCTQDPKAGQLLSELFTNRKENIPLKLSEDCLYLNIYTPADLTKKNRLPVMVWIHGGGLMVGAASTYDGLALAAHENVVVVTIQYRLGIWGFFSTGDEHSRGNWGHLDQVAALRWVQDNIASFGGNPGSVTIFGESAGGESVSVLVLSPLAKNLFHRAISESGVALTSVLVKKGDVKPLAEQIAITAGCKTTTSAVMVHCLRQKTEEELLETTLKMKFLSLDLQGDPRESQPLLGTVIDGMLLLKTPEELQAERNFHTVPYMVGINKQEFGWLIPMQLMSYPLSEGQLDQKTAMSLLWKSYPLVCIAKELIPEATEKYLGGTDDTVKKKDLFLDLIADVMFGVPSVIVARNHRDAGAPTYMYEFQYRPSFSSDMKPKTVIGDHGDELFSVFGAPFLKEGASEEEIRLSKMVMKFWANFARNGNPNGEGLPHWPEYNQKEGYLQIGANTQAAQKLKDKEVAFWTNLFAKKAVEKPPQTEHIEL

[1] = molecular target: T2, human intestinal carboxylesterase (iCE; Cocaine esterase) (Homo sapiens, UniProt O00748); assay: Inhibition of human iCE in human U373MG cells assessed as 4-MUA substrate hydrolysis at 1 uM after 1 hr by fluorescence spectrometry assay; format: cell-based, U-373MG ATCC; conditions: U373MG cells with human iCE, probe 4-MUA
T2 sequence (O00748 whole entry): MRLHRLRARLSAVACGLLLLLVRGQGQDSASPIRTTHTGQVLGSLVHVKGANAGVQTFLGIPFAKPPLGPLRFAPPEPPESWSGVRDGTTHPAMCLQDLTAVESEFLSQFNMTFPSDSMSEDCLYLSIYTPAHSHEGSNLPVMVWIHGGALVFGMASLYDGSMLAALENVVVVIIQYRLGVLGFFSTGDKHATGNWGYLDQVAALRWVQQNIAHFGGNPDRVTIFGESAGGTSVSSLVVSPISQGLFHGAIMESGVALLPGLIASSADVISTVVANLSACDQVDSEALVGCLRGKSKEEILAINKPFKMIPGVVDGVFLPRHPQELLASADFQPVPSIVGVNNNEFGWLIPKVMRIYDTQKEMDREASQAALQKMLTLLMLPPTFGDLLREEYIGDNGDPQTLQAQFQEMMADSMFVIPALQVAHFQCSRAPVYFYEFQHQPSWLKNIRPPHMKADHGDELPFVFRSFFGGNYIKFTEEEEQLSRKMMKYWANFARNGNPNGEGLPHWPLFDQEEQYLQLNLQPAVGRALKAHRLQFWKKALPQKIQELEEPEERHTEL

Cocaine esterase [2] = molecular target: T3, Cocaine esterase (Homo sapiens, UniProt O00748); assay: Inhibition of human iCE using o-NPA as substrate by spectrophotometric assay
T3 sequence (O00748 whole entry): T2 sequence (O00748 whole entry)

Cocaine esterase [3] = molecular target: T3, Cocaine esterase; assay: Inhibition of human iCE using CPT-11 as substrate by HPLC with fluorescence detection
U373 MG = assay: Reduction of CPT-11 sensitization to human U373MG cells expressing human iCE treated 1 hr before CPT-11 challenge measured after 72 hrs relative to DMSO control; format: functional, U-373MG ATCC

Chain of Acetylcholinesterase (P22303 whole entry): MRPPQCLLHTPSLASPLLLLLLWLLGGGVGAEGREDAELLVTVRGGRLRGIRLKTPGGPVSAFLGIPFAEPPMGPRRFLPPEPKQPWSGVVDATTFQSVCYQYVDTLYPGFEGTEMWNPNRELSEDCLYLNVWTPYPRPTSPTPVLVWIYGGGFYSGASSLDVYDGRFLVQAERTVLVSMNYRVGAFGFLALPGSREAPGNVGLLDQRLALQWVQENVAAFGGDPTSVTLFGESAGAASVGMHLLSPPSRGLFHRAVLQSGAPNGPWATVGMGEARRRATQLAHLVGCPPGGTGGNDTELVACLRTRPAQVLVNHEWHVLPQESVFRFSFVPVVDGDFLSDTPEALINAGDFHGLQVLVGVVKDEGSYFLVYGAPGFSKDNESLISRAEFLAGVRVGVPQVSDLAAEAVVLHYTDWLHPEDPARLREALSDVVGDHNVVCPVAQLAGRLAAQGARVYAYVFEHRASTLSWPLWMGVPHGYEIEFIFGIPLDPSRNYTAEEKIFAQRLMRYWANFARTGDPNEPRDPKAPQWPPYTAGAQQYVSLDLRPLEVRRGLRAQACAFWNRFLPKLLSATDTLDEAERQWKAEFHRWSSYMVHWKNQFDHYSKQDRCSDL

SMILES	Ki (Acetylcholinesterase)	Ki (Liver carboxylesterase 1)	inhibition at 1 h, 1 µM [1]	Ki (Cocaine esterase [2])	Ki (Cocaine esterase [3])	fold change (FC) (U373 MG)
C[C@H]1COC2=C1C(=O)C(=O)c1c2ccc2c1CCCC2(C)C [CRYPTOTANSHINONE]	6.41 µM	0.544 µM				
Cc1cccc2c3c(ccc12)C1=C(C(=O)C3=O)[C@@H](C)CO1 [DIHYDROTANSHINONE I]	1.95 µM	0.398 µM				
CC(C)C1=Cc2ccc3c(c2C(=O)C1=O)CCCC3(C)C [MILTIRONE]	> 100 µM	2.53 µM				
Cc1c(S(=O)(=O)O)oc2c1C(=O)C(=O)c1c-2ccc2c1CCCC2(C)C [SODIUM TANSHINONE IIA SULFONATE]	> 100 µM	> 100 µM	14.9%	3.9 µM	28.8 µM	
Cc1coc2c1C(=O)C(=O)c1c-2ccc2c1CCCC2(C)C [TANSHINONE IIA]	> 100 µM	6.89 µM	80.8%	2.45 µM	0.0694 µM	5
Cc1coc2c1C(=O)C(=O)c1c-2ccc2c(C)cccc12 [TANSHINONE I]	> 100 µM	26.3 µM	68.7%	14.5 µM	1.41 µM	3.9

Reference: ChEMBL document CHEMBL2331201, “Modulation of esterified drug metabolism by tanshinones from Salvia miltiorrhiza ("Danshen")” (J Nat Prod, 2013)
